Measured values reported in patent US11634452B2, “Compounds for treating neurodegenerative disorders” (ETHNODYNE, priority 2017, dated 2023).
Several values for one entry are separate records, joined by “and”; a condition that tells them apart may be missing. Equal entries are not always repeated.

Key:
Format in all cases: cell-based
[1] = system: primary rat dopaminergic neurons (TH positive neurons) injured with 6-OHDA; test: Neuroprotective effect following exposure to 6-OHDA, with or without pathway inhibitors; details: 6-OHDA 20 μM, 48 h, no compound
Description: This study investigated the mode of action of CR777 on rat primary mesencephalic cultures following exposure to 6-OHDA. The effect of CR777 on level of GDNF and BDNF mRNA was investigated after 24 h 6-OHDA incubation and CR777. The main pathways of survival, regulation of the apoptosis and neuronal growth were investigated in presence of CR777 and inhibitors of these different pathways. The following pathways were investigated using antagonists of different proteins of interest: • RAS (small GTPase)/RAF (proto-oncogene Serine/threonine kinase); • Peroxisome proliferator-activated receptor gamma (PPAR-γ) (nuclear receptor) • The Pi3K/AKT/mTor (cell signaling pathway that plays a key role in cellular homeostasis through its role in regulation of apoptosis, cell growth, cell cycle). • NO (nitric oxide) pathway
Rat dopaminergic neurons were cultured as described in Example 4.
On day 6 of culture, the medium was removed and fresh medium was added, without or with 6-OHDA (Sigma, Batch: 083M4624V) at 20 μM diluted in control medium and let for 48 h. In parallel, all inhibitors were solved in culture medium and were added 2 h before the 6-OHDA application (namely 1 h before test compounds application).
CR777 was solved in DMSO at 10 mM, diluted in culture medium and then pre-incubated with mesencephalic neurons 1 hour before the 6-OHDA application (48 h). 6 wells per condition were assessed.
For survival and α-syn aggregation, compound was tested on 1 culture in a 96 well-plate (6 wells per condition), was pre-incubated 1 hour before 6-OHDA and let for 48 hours.
The following conditions were assessed: • Control (culture medium) • +6-OHDA (20 μM, 48 h) • +6-OHDA (20 μM, 48 h)+CR777 1 μM • +6-OHDA (20 μM, 48 h)+CR777 100 nM • +6-OHDA (20 μM, 48 h)+CR777 10 nM • +6-OHDA (20 μM, 48 h)+CR777 1 nM
For pathway investigation, the compound was tested on one primary dopaminergic culture in 96 well plates (6 wells per conditions).
Inhibitors were pre-incubated for 2 hours before 6-OHDA application and CR777 was pre-incubated 1 hour before 6-OHDA application.
The antagonists/inhibitors used in the experiments are the following: • FTS: farnesylthiosalicylic acid selectively disrupts the association of chronically active Ras proteins with the plasma membrane. • BEZ-235: dual PI3K/mTOR inhibitor. • T0070907: selective PPAR-γ antagonist • L-NAME (Nitro-L-arginine methyl ester): precursor to NOS inhibitor, L-NNA—requires bioactivation to become a fully functional inhibitor. • ABT-199: selective inhibitor of Bcl-2.
48 hours after intoxication, the cell culture supernatant was taken off and the dopaminergic neurons were fixed by a solution of 4% paraformaldehyde in PBS, pH=7.3 for 20 min at room temperature.
After permeabilization with 0.1% of saponin, cells were incubated for 2 hours with:
monoclonal Anti-Tyrosine Hydroxylase (TH) antibody produced in mouse at dilution of 1/10000 in PBS containing 1% FCS, 0.1% saponin,
polyclonal anti-α-syn antibody produced in rabbit at dilution of 1/200 for 2 h at room temperature.
For each condition, 20 pictures/well (representative of ˜the all well area) were automatically taken using ImageXpress (Molecular Devices) with 10× magnification. All images were taken with the same conditions. Analysis were automatically performed by using Custom Module Editor (Molecular Devices).
The following endpoint was investigated for each culture well: • The total dopaminergic neuron survival (TH staining), • The total area of α-syn on TH positive neuron (overlapping α-syn/TH)
After permeabilization with 0.1% of saponin, cells were incubated for 2 hours with monoclonal Anti-Tyrosine Hydroxylase (TH) antibody produced in mouse at dilution of 1/10000 in PBS containing 1% FCS, 0.1% saponin, for 2 h at room temperature.
The total dopaminergic neuron survival (TH staining) was investigated for each culture well.

[2] = system: primary rat cortical neurons injured with glutamate; test: Effect in rat primary cortical neurons after glutamate injury; details: glutamate 40 μM, 20 min, no compound
Description: A., et al., 1999. J Neurosci 19: 2455-2463 and Callizot.
The medium was changed every 2 days. The cortical neurons were intoxicated with glutamate solution.
The following conditions were assessed: • Control (culture medium) • + glutamate (40 μM, 20 min) • + glutamate (40 μM, 20 min)+CR777 (at each concentration)

[3] = system: primary rat motor neurons injured with glutamate; test: Primary motor neuron culture survival after glutamate exposure (in vitro ALS model); details: glutamate 5 μM for 20 min, no compound
Description: The aim of this study was to study the effect of CR777 on primary motor neuron culture from rat spinal cord (SC) injured by glutamate exposure (a well validated in vitro ALS model and model of motor neuron diseases).
Rat SC motor neurons were cultured as described by Martinou et al., Neuron. 1992 April; 8(4):737-44 and Wang et al., Hum Mol Genet. 2013 Dec. 1; 22(23):4706-19. Briefly, pregnant female rats (Wistar, Janvier labs) of 14 days gestation were killed by cervical dislocation. […] Cells were then centrifuged at 180 g for 10 min at +4° C. on a layer of BSA (3.5%) in L15 medium. […] The medium was changed every day.
The following conditions were assessed: • Control • + glutamate (5 μM 20 mn then 48 h) • + glutamate (5 μM 20 mn then 48 h)+CR777 1 pmol/L • + glutamate (5 μM 20 mn then 48 h)+CR777 10 pmol/L • + glutamate (5 μM 20 mn then 48 h)+CR777 100 pmol/L • + glutamate (5 μM 20 mn then 48 h)+CR777 1 nmol/L • + glutamate (5 μM 20 mn then 48 h)+CR777 10 nmol/L • + glutamate (5 μM 20 mn then 48 h)+CR777 100 nmol/L • + glutamate (5 μM 20 mn then 48 h)+CR777 1 μmol/L • + glutamate (5 μM 20 mn then 48 h)+CR777 10 μmol/L […]
For each condition, 6 wells were assessed, 30 pictures per well were taken using ImageXpress (Molecular Devices) with 20× magnification, to assess motor neuron survival (MAP-2). […]

[4] = system: primary rat dopaminergic neurons (TH positive neurons) injured with MPP+; test: Neuroprotective effect following exposure to MPP+; details: MPP+ 4 μM, 48 h, no compound
Description: This study investigated the neuroprotective effect of the Compound CR777 of example 1 on rat primary mesencephalic cultures following exposure to 1-methyl-4-phenyl pyridinium (MPP^+).
Rat dopaminergic neurons were cultured as described by Visanji et al., 2008 FASEB J. 2008; 22(7):2488-97. Briefly, the midbrains obtained from 15-day old rat embryos (Janvier Labs, France) were dissected under a microscope. The embryonic midbrains were removed and placed in ice-cold medium of Leibovitz (L15, Batch 4290114, Pan Biotech, Germany) containing 2% of Penicillin-Streptomycin (PS, Batch 1451013, Pan Biotech) and 1% of bovine serum albumin (BSA, Batch K030913, Pan Biotech). The ventral portion of the mesencephalic flexure, a region of the developing brain rich in dopaminergic neurons, was used for the cell preparations.
The midbrains were dissociated by trypsinisation for 20 min at 37° C. […] The cells were seeded in supplemented neurobasal medium at a density of 40 000 cells/well in 96 well-plates pre-coated with poly-L-lysine (Batch 3102256, Corning Biocoat) and maintained in a humidified incubator at 37° C. in 5% CO2/95% air atmosphere. Half of the medium was changed every 2 days with fresh medium.
On day 6 of culture, the medium was removed and fresh medium was added, without or with MPP+ at 4 μM diluted in control medium and let for 48 h. […]
The following conditions were assessed: (6 wells per condition) • Control (vehicle) • Compound CR777 of example 1 (1 pmol/L) • Compound CR777 of example 1 (10 pmol/L) • Compound CR777 of example 1 (100 pmol/L) • Compound CR777 of example 1 (1 nmol/L) • Compound CR777 of example 1 (10 nmol/L) • Compound CR777 of example 1 (100 nmol/L) • Compound CR777 of example 1 (1 μmol/L) • Compound CR777 of example 1 (10 μmol/L) […]
Data were expressed in percentage of control conditions (no injury, no compound=100%). All values were expressed as mean+/−SEM (standard error mean) of the 6 wells with statistical analyses on the different conditions (ANOVA followed by Dunnett's test when allowed, using GraphPad Prism software).

[5] = system: primary rat cortical neurons injured with Aβ1-42; test: Neuroprotective effect on an in vitro model of Alzheimer disease; details: Aβ1-42 20 μM, 24 h, no compound
Description: These peptides contribute to cerebrovascular lesions and are neurotoxic. This study investigated the neuroprotective effect of the plant extract of the invention on rat primary cortical cultures following exposure to Aβ1-42 in an in vitro AD model (Callizot. N., et al., 2013).
Rat cortical neurons were cultured as described in Example 6.
The cortical neurons were intoxicated with amyloid beta peptides solutions after 11 days of culture in presence of tested compound CR777.
Briefly, Aβ1-42 peptide (Batch: APN09080-1-1, Abcam, United Kingdom) was dissolved in the defined culture medium B27 mentioned above, devoid of serum, at an initial concentration of 40 μmol/L. This solution was gently agitated for 3 days at 37° C. in the dark and immediately used after being properly diluted in culture medium to the concentrations used (20 μM corresponding to 2 μM of AβO, measuring by WB, for survival, neurite network, tau phosphor and caspase 3 activation and 2.5 μM corresponding to 0.25 μM of AβO, for synapses evaluation).
CR777 was solved in DMSO at 10 mM and diluted in culture medium at different concentrations (see table below). The compound was tested on one primary cortical culture in 96 well plates (6 wells per conditions), and was pre-incubated 1 hour before Aβ1-42 application for 24 hours.
24 hours after intoxication, the cell culture supernatant was taken off and the cortical neurons were fixed by a cold solution of ethanol (95%) and acetic acid (5%) for 5 min at −20° C. • Plate 1: Immunostainning (MAP-2/Tau Phosphor)
After permeabilization with 0.1% of saponin, cells were incubated for 2 hours with a) a mouse monoclonal antibody anti phosphoT at dilution of 1/400 in PBS containing 1% fetal calf serum and 0.1% of saponin and b) a chicken polyclonal antibody anti microtubule-associated-protein 2 (MAP-2) at dilution of 1/1000 in PBS containing 1% fetal calf serum and 0.1% of saponin (this antibody stains specifically cell bodies and neurites, allowing study of neuronal cell survival and neurite network).
(§1) For each condition, 30 pictures/well (representative of ˜the all well area) were taken automatically using ImageXpress (Molecular Devices) with 20× magnification. All images were taken with the same conditions. Analysis were performed automatically by using Custom Module Editor (Molecular Devices).
The following endpoints were investigated per culture well: • The total neuron survival (MAP-2 staining), • The neurite network (MAP-2 staining) and • hyperphophorylation of T protein (pT) into neurons (pT/MAP-2). • Plate 2: Immunostainning (MAP-2/Caspase 3)
as §1, with “Devices). • The total number of caspase 3 positive neuron (overlapping caspase3/MAP-2) were investigated per culture well:” for “Devices).”
Data is expressed in percentage of control conditions (no injury, no compound=100%). All values are expressed as mean+/−SEM (standard error of the mean) from 6 wells per condition per culture. Neuro-Sys performed graphs and statistical analyses on the different conditions (ANOVA followed by Dunnett's test when allowed, using GraphPad Prism software version 5.0).

NCCc1cc(O)c(O)cc1O [Compound 6-OHDA, reference compound]
TH positive neuronal death induced by the toxin [1]: ~30% | loss of the neurite network induced by the toxin [1]: ~35% and ~40% | α-syn aggregation inside TH neuron cytoplasm induced by the toxin [1]: large and significant α-syn aggregation

N[C@@H](CCC(=O)O)C(=O)O [Glutamate, glutamate, reference compound]
neurite network loss induced by glutamate [2]: neurite network loss | neuronal death induced by glutamate [2]: significant neuronal death | motor neuron death induced by glutamate [3]: > 30%

C[n+]1ccc(-c2ccccc2)cc1 [MPP+, 1-methyl-4-phenyl pyridinium, reference compound]
TH positive neuron cell death induced by the toxin [4]: > 35%

Amyloid beta peptide 1-42 [Aβ, reference compound]
caspase 3 activation induced by Aβ [5]: activation of caspase 3 | hyperphosphorylation of tau induced by Aβ [5]: increase of the hyperphosphorylation of tau | neurite network loss induced by Aβ [5]: ~40%
